In US12116388B2, “Amylin receptor agonists” (Novo Nordisk A/S, priority 2022, dated 2024) one finds EC50 data, which are given here for 5 molecules.

Assay [1] deals with T1, human amylin receptor (hAMYR3) (Homo sapiens, UniProt O60896+P30988).
T1 construct: host or cells: BHK (Baby Hamster Kidney), Hollex-1 cell line further transfected with RAMP3
Description: Human amylin receptor (hAMYR3) in vitro potency assay, CRE-luciferase reporter in BHK cells. It is filed as cell-based. The settings on record: BHK hAMYR3/CRE-Luc cells, 3 hours incubation, assay buffer with 1% ovalbumin. An outline of the steps:
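BHK cells stably expressing human calcitonin receptor (a) plus RAMP3 and a CRE-luciferase reporter, seeded overnight, then exposed to 7-point 7-fold dilutions (often from ~10 nM) in DMEM/HEPES buffer with 1% ovalbumin for 3 h at 37 °C. Luciferase luminescence read after SteadyLite Plus addition.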

Assay [2] deals with T2, human calcitonin receptor (hCTR) (Homo sapiens, UniProt P30988).
T2 construct: host or cells: BHK (Baby Hamster Kidney), Hollex-1 cell line
T2 sequence (P30988 25-474): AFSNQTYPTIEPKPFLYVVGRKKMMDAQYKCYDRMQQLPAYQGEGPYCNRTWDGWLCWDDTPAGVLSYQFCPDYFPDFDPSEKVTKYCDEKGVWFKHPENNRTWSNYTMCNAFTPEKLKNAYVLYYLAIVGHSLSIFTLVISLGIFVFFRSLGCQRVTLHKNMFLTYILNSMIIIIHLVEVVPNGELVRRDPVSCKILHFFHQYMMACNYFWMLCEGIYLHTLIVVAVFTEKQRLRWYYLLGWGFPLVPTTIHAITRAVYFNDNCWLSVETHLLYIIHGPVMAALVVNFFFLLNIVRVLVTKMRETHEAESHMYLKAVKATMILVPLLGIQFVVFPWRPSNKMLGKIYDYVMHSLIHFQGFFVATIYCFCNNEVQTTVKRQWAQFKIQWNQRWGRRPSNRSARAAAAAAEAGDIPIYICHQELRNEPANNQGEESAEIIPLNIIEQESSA
Description: Human calcitonin receptor (hCTR) in vitro potency assay, CRE-luciferase reporter in BHK cells. It is filed as cell-based. As to conditions: BHK hCTR/CRE-Luc cells, 3 hours incubation, assay buffer with 1% ovalbumin; read-out: hCalcR potency, EC50. The method, boiled down: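 BHK cells stably co-expressing human calcitonin receptor and a CRE-luciferase reporter, seeded the day before, were exposed to 7-fold serial dilutions (7 concentrations, often starting near 10 nM) in DMEM/HEPES/1% ovalbumin buffer for 3 h at 37 °C. Luminescence was then read after SteadyLite Plus addition.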

Starred links: 1 amine or outer side, 2 acyl side, 3 side chain; linkers in the order of their positions; H or OH if unused. Residues, ends and D or L forms follow the SMILES beside them. *: point of attachment. C20 diacid = O=C(O)CCCCCCCCCCCCCCCCCCC(=O)*; C18 diacid = O=C(O)CCCCCCCCCCCCCCCCC(=O)*; γGlu = O=C(O)[C@H](CCC(=O)[*:2])N[*:1]

T1 sequence (O60896 24-148, one chain of several): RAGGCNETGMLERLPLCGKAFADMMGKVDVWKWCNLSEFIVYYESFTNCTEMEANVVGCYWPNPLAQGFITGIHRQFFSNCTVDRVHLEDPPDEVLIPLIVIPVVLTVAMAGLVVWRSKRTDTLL

Broadly, the EC50 is the concentration at which the effect is half-maximal. As to `CC[C@H](C)[C@H](NC(=O)[C@H](C)NC(=O)CNC(=O)[C@H](Cc1ccccc1)NC(=O)[C@@H]1CCCN1C(=O)[C@H](CC(=O)O)NC(=O)[C@H](CO)NC(=O)[C@H](CO)NC(=O)[C@H](Cc1c[nH]cn1)NC(=O)[C@H](Cc1c[nH]cn1)NC(=O)[C@H](CC(C)C)NC(=O)[C@H](Cc1ccccc1)NC(=O)[C@H](CCC(=O)O)NC(=O)[C@H](C)NC(=O)[C@H](CC(C)C)NC(=O)[C@H](CCCNC(=N)N)NC(=O)[C@H](C)NC(=O)[C@@H](NC(=O)[C@H](CCC(N)=O)NC(=O)[C@H](C)NC(=O)[C@@H](NC(=O)[C@H](CO)NC(=O)[C@H](CC(C)C)NC(=O)[C@H](Cc1c[nH]cn1)NC(=O)[C@H](CO)NC(=O)[C@H](C)NC(=O)CC[C@H](NC(=O)CCCCCCCCCCCCCCCCCCC(=O)O)C(=O)O)[C@@H](C)O)[C@@H](C)O)C(=O)N1CCC[C@H]1C(=O)N[C@@H](CO)C(=O)N[C@@H](CO)C(=O)N[C@H](C(=O)N[C@@H](CC(=O)O)C(=O)N[C@H](C(=O)NCC(=O)N1CCC[C@H]1C(=O)N[C@@H](CC(=O)O)C(=O)N[C@H](C(=O)N1CCC[C@H]1C(N)=O)[C@@H](C)O)C(C)C)[C@@H](C)O` [Compound 39, N^1-[(4S)-4-carboxy-4-(19-carboxynonadecanoylamino)butanoyl]-[Ala1,Ser2,His3,Leu4,Ser5,Ala7,Gln8,Ala10,Glu14,His17,Asp21,Pro22,Pro27,Asp31,Pro34,Asp35,Pro37]-human amylin] ({C20 diacid-γGlu}-ASHLSTAQTARLAEFLHHSSDPFGAIPSSTDVGPDTP-NH2), the EC50 in assay [1] was 1.05 pM; in assay [2], 1.41 pM.

As for `CC[C@H](C)[C@H](NC(=O)[C@H](C)NC(=O)CNC(=O)[C@H](Cc1ccccc1)NC(=O)[C@@H]1CCCN1C(=O)[C@H](CC(=O)O)NC(=O)[C@H](CO)NC(=O)[C@H](CO)NC(=O)[C@H](Cc1c[nH]cn1)NC(=O)[C@H](Cc1c[nH]cn1)NC(=O)[C@H](CC(C)C)NC(=O)[C@H](Cc1ccccc1)NC(=O)[C@H](CCC(=O)O)NC(=O)[C@H](C)NC(=O)[C@H](CC(C)C)NC(=O)[C@H](CCCNC(=N)N)NC(=O)[C@H](CCC(N)=O)NC(=O)[C@@H](NC(=O)[C@H](CCC(N)=O)NC(=O)[C@H](C)NC(=O)[C@@H](NC(=O)[C@H](CO)NC(=O)[C@H](CC(C)C)NC(=O)[C@H](CCC(=O)O)NC(=O)CNC(=O)[C@H](C)NC(=O)CC[C@H](NC(=O)CCCCCCCCCCCCCCCCC(=O)O)C(=O)O)[C@@H](C)O)[C@@H](C)O)C(=O)N1CCC[C@H]1C(=O)N[C@@H](CO)C(=O)N[C@@H](CO)C(=O)N[C@H](C(=O)N[C@@H](CC(=O)O)C(=O)N[C@H](C(=O)NCC(=O)N1CCC[C@H]1C(=O)N[C@@H](CC(=O)O)C(=O)N[C@H](C(=O)N1CCC[C@H]1C(N)=O)[C@@H](C)O)C(C)C)[C@@H](C)O` [Compound 11, N^1-[(4S)-4-carboxy-4-(17-carboxyheptadecanoylamino)butanoyl]-[Ala1,Gly2,Glu3,Leu4,Ser5,Ala7,Gln8,Glu14,His17,Asp21,Pro22,Pro27,Asp31,Pro34,Asp35,Pro37]-human amylin] ({C18 diacid-γGlu}-AGELSTAQTQRLAEFLHHSSDPFGAIPSSTDVGPDTP-NH2), the EC50 is 2.43 pM in assay [1] and 1.58 pM in assay [2].

For `CC[C@H](C)[C@H](NC(=O)[C@@H]1CCCN1C(=O)CNC(=O)[C@H](Cc1ccccc1)NC(=O)[C@H](CC(N)=O)NC(=O)[C@H](CC(=O)O)NC(=O)[C@H](CO)NC(=O)[C@H](CO)NC(=O)[C@H](Cc1c[nH]cn1)NC(=O)[C@H](Cc1c[nH]cn1)NC(=O)[C@H](CC(C)C)NC(=O)[C@H](Cc1ccccc1)NC(=O)[C@H](CCC(=O)O)NC(=O)[C@H](C)NC(=O)[C@H](CC(C)C)NC(=O)[C@H](CCCNC(=N)N)NC(=O)[C@H](C)NC(=O)[C@@H](NC(=O)[C@H](CCC(N)=O)NC(=O)[C@H](C)NC(=O)[C@@H](NC(=O)[C@H](CO)NC(=O)[C@H](CC(C)C)NC(=O)[C@H](CO)NC(=O)CNC(=O)[C@H](C)NC(=O)CC[C@H](NC(=O)CCCCCCCCCCCCCCCCC(=O)O)C(=O)O)[C@@H](C)O)[C@@H](C)O)C(=O)N[C@@H](CC(C)C)C(=O)N1CCC[C@H]1C(=O)N1CCC[C@H]1C(=O)N[C@H](C(=O)N[C@@H](CC(=O)O)C(=O)N[C@H](C(=O)NCC(=O)N[C@@H](CO)C(=O)N[C@@H](CC(N)=O)C(=O)N[C@H](C(=O)N1CCC[C@H]1C(N)=O)[C@@H](C)O)C(C)C)[C@@H](C)O` [Compound 13, N^1-[(4S)-4-carboxy-4-(17-carboxyheptadecanoylamino)butanoyl]-[Ala1,Gly2,Ser3,Leu4,Ser5,Ala7,Gln8,Ala10,Glu14,His17,Asp21,Pro25,Pro28,Pro29,Asp31,Pro37]-human amylin] ({C18 diacid-γGlu}-AGSLSTAQTARLAEFLHHSSDNFGPILPPTDVGSNTP-NH2), the figures for the EC50 in assay [1] and in assay [2] were 1.36 pM and 1.58 pM, respectively.

As for `CC[C@H](C)[C@H](NC(=O)[C@@H]1CCCN1C(=O)CNC(=O)[C@H](Cc1ccccc1)NC(=O)[C@H](Cc1c[nH]cn1)NC(=O)[C@H](Cc1c[nH]cn1)NC(=O)[C@H](CC(C)C)NC(=O)[C@H](Cc1ccccc1)NC(=O)[C@H](CCC(=O)O)NC(=O)[C@H](C)NC(=O)[C@H](CC(C)C)NC(=O)[C@H](CCCNC(=N)N)NC(=O)[C@H](C)NC(=O)[C@@H](NC(=O)[C@H](CCC(N)=O)NC(=O)[C@H](C)NC(=O)[C@@H](NC(=O)[C@H](CO)NC(=O)[C@H](CC(C)C)NC(=O)[C@H](Cc1c[nH]cn1)NC(=O)[C@H](CO)NC(=O)[C@H](C)NC(=O)CC[C@H](NC(=O)CCCCCCCCCCCCCCCCC(=O)O)C(=O)O)[C@@H](C)O)[C@@H](C)O)C(=O)N[C@@H](CC(C)C)C(=O)N1CCC[C@H]1C(=O)N1CCC[C@H]1C(=O)N[C@H](C(=O)N[C@@H](CC(=O)O)C(=O)N[C@H](C(=O)NCC(=O)N[C@@H](CO)C(=O)N[C@@H](CCC(=O)O)C(=O)N[C@H](C(=O)N1CCC[C@H]1C(N)=O)[C@@H](C)O)C(C)C)[C@@H](C)O` [Compound 43, N^1-[(4S)-4-carboxy-4-(17-carboxyheptadecanoylamino)butanoyl]-[Ala1,Ser2,His3,Leu4,Ser5,Ala7,Gln8,Ala10,Glu14,His17,Pro25,Pro28,Pro29,Asp31,Glu35,Pro37],des-(19-22)-human amylin] ({C18 diacid-γGlu}-ASHLSTAQTARLAEFLHHFGPILPPTDVGSETP-NH2), the EC50 was 1.06 pM in assay [1] and 1.76 pM in assay [2].

On to `CC[C@H](C)[C@H](NC(=O)[C@H](C)NC(=O)CNC(=O)[C@H](Cc1ccccc1)NC(=O)[C@@H]1CCCN1C(=O)[C@H](CC(=O)O)NC(=O)[C@H](CO)NC(=O)[C@H](CO)NC(=O)[C@H](Cc1c[nH]cn1)NC(=O)[C@H](Cc1c[nH]cn1)NC(=O)[C@H](CC(C)C)NC(=O)[C@H](Cc1ccccc1)NC(=O)[C@H](CCC(=O)O)NC(=O)[C@H](C)NC(=O)[C@H](CC(C)C)NC(=O)[C@H](CCCNC(=N)N)NC(=O)[C@H](CCC(N)=O)NC(=O)[C@@H](NC(=O)[C@H](CCC(N)=O)NC(=O)[C@H](C)NC(=O)[C@@H](NC(=O)[C@H](CO)NC(=O)[C@H](CC(C)C)NC(=O)[C@H](Cc1c[nH]cn1)NC(=O)[C@H](CO)NC(=O)[C@H](C)NC(=O)CC[C@H](NC(=O)CCCCCCCCCCCCCCCCC(=O)O)C(=O)O)[C@@H](C)O)[C@@H](C)O)C(=O)N1CCC[C@H]1C(=O)N[C@@H](CO)C(=O)N[C@@H](CO)C(=O)N[C@H](C(=O)N[C@@H](CC(=O)O)C(=O)N[C@H](C(=O)NCC(=O)N1CCC[C@H]1C(=O)N[C@@H](CC(=O)O)C(=O)N[C@H](C(=O)N[C@@H](Cc1ccc(O)cc1)C(N)=O)[C@@H](C)O)C(C)C)[C@@H](C)O` [Compound 36, N^1-[(4S)-4-carboxy-4-(17-carboxyheptadecanoylamino)butanoyl]-[Ala1,Ser2,His3,Leu4,Ser5,Ala7,Gln8,Glu14,His17,Asp21,Pro22,Pro27,Asp31,Pro34,Asp35]-human amylin] ({C18 diacid-γGlu}-ASHLSTAQTQRLAEFLHHSSDPFGAIPSSTDVGPDTY-NH2), for which the EC50 was 2.96 pM in assay [1] and 3.22 pM in assay [2].
